Assay results published in ChEMBL document CHEMBL1122382, “An evaluation of certain chain-extended analogues of 9-beta-D-arabinofuranosyladenine for antiviral and cardiovascular activity” (1983).

Assays:
[1] = system: Human alphaherpesvirus 1; experiment: Antiviral activity against herpes simplex virus type 1 (strain 377).; format: functional; settings: read-out: ID50 (the source's name)
[2] = system: Human alphaherpesvirus 1; experiment: Virus rating (VR) which is the weighted measurement of in vitro antiviral activity, based on the inhibition of virus-induced cytopathogenic effects. VR > 1, active.; format: functional
[3] = system: Canis familiaris; experiment: Compound was evaluated for the cardiovascular activity, expressed as maximum percent response achieved with standard (administered intravenously at a dose of 0.10 mg/kg) at a dose of 1.0 mg/kg of compound; format: functional, Canis lupus familiaris, Heart
[4] = system: Human alphaherpesvirus 1; experiment: Compound was evaluated for virus rating (VR) which is the weighted measurement of in vitro antiviral activity, based on the inhibition of HSV-1 virus-induced cytopathogenic effects. VR = 0.5-0.9 indicates marginal activity; format: functional
[5] = system: Ara-A; experiment: Compound was evaluated for antiviral activity of the compound, expressed as ID50 for the inhibition of cellular DNA and protein synthesis in ara-A resistant cells; format: functional; settings: Homo sapiens; read-out: ID50 (the source's name)
[6] = Compound was evaluated for antiviral activity of the compound, expressed as ID50 for the inhibition of cellular DNA and protein synthesis in wild-type cells; format: functional; settings: read-out: ID50 (the source's name)
[7] = system: Human alphaherpesvirus 1; experiment: Antiviral activity against herpes simplex virus type 1 (strain HF).; format: functional; settings: read-out: ID50 (the source's name)
[8] = Compound was evaluated for in vitro therapeutic index ratio of the ID50 for inhibition of cellular DNA and protein synthesis to the ID50 for inhibition of virus replication; format: functional
[9] = system: Human alphaherpesvirus 1; experiment: Virus rating (VR) which is the weighted measurement of in vitro antiviral activity, based on the inhibition of HSV-1 virus-induced cytopathogenic effects. VR > 1, active.; format: functional
[10] = system: Canis familiaris; experiment: Compound was evaluated for the cardiovascular activity, expressed as maximum % response achieved with standard (administered intravenously at a dose of 0.10 mg/kg) at a dose of 1.0 mg/kg of the compound; format: functional, Canis lupus familiaris, Heart
[11] = system: Human alphaherpesvirus 1; experiment: Compound was evaluated for virus rating (VR) which is the weighted measurement of in vitro antiviral activity, based on the inhibition of HSV-1 virus-induced cytopathogenic effects. VR > 1, active; format: functional
[12] = Compound was evaluated for antiviral activity expressed as ID50 for the inhibition of cellular DNA and protein synthesis in wild-type cells; format: functional; settings: read-out: ID50 (the source's name)
[13] = system: Ara-A; experiment: Compound was evaluated for antiviral activity expressed as ID50 for the inhibition of cellular DNA and protein synthesis in ara-A resistant cells; format: functional; settings: Homo sapiens; read-out: ID50 (the source's name)

SMILES	IC50 [1] [µM]	VR [2]	IC50 [7] [µM]	Ratio [8]	other results
NC(=O)CC[C@H]1OC(n2cnc3c(N)ncnc32)[C@@H](O)[C@@H]1O (some centres undefined)	574	1.6			Response [3]: 10%
Nc1ncnc2c1ncn2C1O[C@H](CCC(=O)O)[C@@H](O)[C@@H]1O (some centres undefined)					VR [4]: 0.3
Nc1ncnc2c1ncn2C1O[C@H](CCCO)[C@@H](O)[C@@H]1O (some centres undefined)	643		525	2.1	IC50 [5]: 1510 µM; IC50 [6]: 1880 µM; VR [9]: 1.5
CCOC(=O)CC[C@H]1OC(n2cnc3c(N)ncnc32)[C@@H](O)[C@@H]1O (some centres undefined)	729				Response [10]: 39%; VR [11]: 1
Nc1ncnc2c1ncn2[C@@H]1O[C@H](CO)[C@@H](O)[C@H]1O [ADENOSINE]	22	2.5	42	3.1	IC50 [12]: 2.4 µM; IC50 [13]: 242 µM
